Target: T1, NTRK1 (TRKA) (Homo sapiens, UniProt P04629)
T1 construct: purchased Thermo Fisher Scientific (Life Technologies) SelectScreen
Test: SelectScreen Z'LYTE
Type: biochemical
In short: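 SelectScreen broad panel; activity (Z'LYTE, Adapta) plus binding formats. ATP: Km app for CSF1R Z'LYTE; 10 for CAMK1 Adapta. Readout = % per kinase.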

T1 sequence (P04629 33-796): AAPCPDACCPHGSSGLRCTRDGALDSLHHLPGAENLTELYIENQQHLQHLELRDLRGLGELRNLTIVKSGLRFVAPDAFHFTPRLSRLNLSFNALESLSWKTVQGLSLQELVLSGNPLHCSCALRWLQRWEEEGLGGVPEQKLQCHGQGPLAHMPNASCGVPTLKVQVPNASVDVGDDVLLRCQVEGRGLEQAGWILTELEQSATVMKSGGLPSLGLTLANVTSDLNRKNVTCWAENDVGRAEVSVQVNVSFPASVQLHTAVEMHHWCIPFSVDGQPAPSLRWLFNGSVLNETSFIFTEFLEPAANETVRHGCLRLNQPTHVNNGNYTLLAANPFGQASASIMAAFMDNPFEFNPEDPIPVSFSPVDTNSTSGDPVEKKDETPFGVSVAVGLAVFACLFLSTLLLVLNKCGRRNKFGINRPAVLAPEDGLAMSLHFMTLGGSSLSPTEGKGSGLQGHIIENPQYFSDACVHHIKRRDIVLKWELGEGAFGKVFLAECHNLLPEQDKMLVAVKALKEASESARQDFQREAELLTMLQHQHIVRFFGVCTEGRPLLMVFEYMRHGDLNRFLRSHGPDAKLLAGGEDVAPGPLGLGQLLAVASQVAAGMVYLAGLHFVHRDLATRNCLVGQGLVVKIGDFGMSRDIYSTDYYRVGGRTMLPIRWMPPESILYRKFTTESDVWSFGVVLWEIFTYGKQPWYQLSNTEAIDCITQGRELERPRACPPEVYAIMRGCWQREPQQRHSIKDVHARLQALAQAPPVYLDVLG

CN(C(=O)CN1CCOCC1)c1ccc2sc3c(-c4cccc5c(=O)cc(N6CC7CCC(C6)O7)oc45)cccc3c2c1 [NU5455]
inhibition at 1 µM: 1.3%

From publication PMC6934184, “Selective DNA-PKcs inhibition extends the therapeutic index of localized radiotherapy and chemotherapy” (The Journal of Clinical Investigation, 2019)
